From PubChem BioAssay AID256 (DTP/NCI, 2004)
Inconclusive results and toxic doses are left out. Rule for the calls: active = survival T/C of 150% or more; inactive = T/C below 125% in these data.

System: CD2F1 mice, L1210 leukemia ip, survival T/C
Assay: NCI In Vivo Anticancer Drug Screen. Data for tumor model L1210 Leukemia (intraperitoneal) in CD2F1 (CDF1) mice
Conditions: endpoint: mean survival time, higher = longer survival
In short: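 Transplantable tumor in mice; compound-treated vs vehicle-treated groups. Read-out = treated/control ratio of the measured endpoint.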

[1] = dose: 100.0 mg/kg/injection, schedule: Q01DX001 (ip), vehicle: saline
[2] = dose: 100.0 mg/kg/injection, schedule: Q01DX009 (ip), vehicle: saline with Tween-80
[3] = dose: 100.0 mg/kg/injection, schedule: Q04DX003 (ip), vehicle: saline with Tween-80
[4] = dose: 200.0 mg/kg/injection, schedule: Q04DX003 (ip), vehicle: saline with Tween-80
[5] = dose: 200.0 mg/kg/injection, schedule: Q01DX009 (ip), vehicle: saline with Tween-80
[6] = dose: 400.0 mg/kg/injection, schedule: Q01DX009 (ip), vehicle: saline with Tween-80
[7] = dose: 400.0 mg/kg/injection, schedule: Q04DX003 (ip), vehicle: saline with Tween-80
[8] = dose: 50.0 mg/kg/injection, schedule: Q01DX009 (ip), vehicle: acetone
[9] = dose: 100.0 mg/kg/injection, schedule: Q01DX009 (ip), vehicle: acetone
[10] = dose: 100.0 mg/kg/injection, schedule: Q01DX001 (ip), vehicle: saline with Tween-80
[11] = dose: 200.0 mg/kg/injection, schedule: Q01DX001 (ip), vehicle: saline with Tween-80
[12] = dose: 400.0 mg/kg/injection, schedule: Q01DX001 (ip), vehicle: saline with Tween-80

Measured: T/C

O=C(O)O.O=C(O)O.O=C(O)O.[Co]
inactive: [1] 102 % of control | dose: 400.0 mg/kg/injection, schedule: Q04DX003 (ip), vehicle: saline 97 % of control

O=C(O)/C=N/NS(=O)(=O)Cc1ccccc1
inactive: dose: 12.5 mg/kg/injection, schedule: Q04DX003 (ip), vehicle: other 102 % of control | dose: 25.0 mg/kg/injection, schedule: Q04DX003 (ip), vehicle: other 113 % of control | dose: 50.0 mg/kg/injection, schedule: Q04DX003 (ip), vehicle: other 117 % of control | dose: 100.0 mg/kg/injection, schedule: Q04DX003 (ip), vehicle: other 117 % of control | dose: 200.0 mg/kg/injection, schedule: Q04DX003 (ip), vehicle: other 122 % of control | dose: 400.0 mg/kg/injection, schedule: Q04DX003 (ip), vehicle: other 111 % of control

Nc1nc(=O)n(C2OC(CO)C(O)C2O)c2sccc12 (stereo not given)
inactive: dose: 25.0 mg/kg/injection, schedule: Q01DX005 (ip), vehicle: water 94 % of control | dose: 50.0 mg/kg/injection, schedule: Q01DX005 (ip), vehicle: water 94 % of control | dose: 100.0 mg/kg/injection, schedule: Q01DX005 (ip), vehicle: water 89 % of control | dose: 200.0 mg/kg/injection, schedule: Q01DX005 (ip), vehicle: water 89 % of control

Cc1cc2sc(C)[n+](CCCOS(=O)(=O)[O-])c2cc1C
inactive: dose: 75.0 mg/kg/injection, schedule: Q01DX001 (ip), vehicle: saline 104 % of control | dose: 150.0 mg/kg/injection, schedule: Q01DX001 (ip), vehicle: saline 104 % of control | dose: 300.0 mg/kg/injection, schedule: Q01DX001 (ip), vehicle: saline 96 % of control

C/C(=C/C#N)c1ccccc1
inactive: dose: 50.0 mg/kg/injection, schedule: Q01DX009 (ip), vehicle: saline with Tween-80 101 % of control | [2] 97 % of control | [3] 100 % of control | [4] 100 % of control

Nc1nnnn1-c1cccc(Cl)c1
inactive: [2] 96 % of control | [5] 102 % of control | [6] 106 % of control

CCOC(=O)C1=C(C)NC(C)=C(C(=O)OCC)C1c1ccc(OC)cc1
inactive: [2] 104 % of control | [3] 97 % of control | [5] 101 % of control | [4] 94 % of control | [6] 97 % of control | [7] 92 % of control

CC(=O)N(C)N=Nc1ccc(Cl)cc1
inactive: dose: 25.0 mg/kg/injection, schedule: Q04DX003 (ip), vehicle: Klucel (hydroxypropylcellulose) (HPC) 109 % of control | dose: 50.0 mg/kg/injection, schedule: Q04DX003 (ip), vehicle: Klucel (hydroxypropylcellulose) (HPC) 105 % of control | dose: 100.0 mg/kg/injection, schedule: Q04DX003 (ip), vehicle: Klucel (hydroxypropylcellulose) (HPC) 103 % of control | dose: 200.0 mg/kg/injection, schedule: Q04DX003 (ip), vehicle: Klucel (hydroxypropylcellulose) (HPC) 100 % of control

Nc1n[nH]c(=S)n1-c1ccccc1
inactive: [8] 98 % of control | [9] 93 % of control | dose: 200.0 mg/kg/injection, schedule: Q01DX009 (ip), vehicle: acetone 98 % of control

ClCC(Cl)C(Cl)CCl (stereo not given)
inactive: dose: 50.0 mg/kg/injection, schedule: Q01DX001 (ip), vehicle: saline with Tween-80 95 % of control | [10] 109 % of control | [11] 86 % of control

O=c1[nH]c2c(c(=O)n1-c1ccccc1)CCCS2
inactive: [1] 103 % of control | dose: 200.0 mg/kg/injection, schedule: Q01DX001 (ip), vehicle: saline 104 % of control | dose: 400.0 mg/kg/injection, schedule: Q01DX001 (ip), vehicle: saline 103 % of control

CCOc1cccc(Cc2cn(Cc3ccccc3)c(=O)[nH]c2=O)c1
inactive: [3] 100 % of control | [4] 106 % of control | [7] 96 % of control

CCCCC/C(C)=C(\C)c1cc(OC)cc(OC)c1
inactive: [2] 103 % of control | [5] 106 % of control | [6] 91 % of control

CC(C)(C(=O)c1ccccc1)C(OC(=O)c1ccccc1)c1ccccc1 (stereo not given)
inactive: [10] 106 % of control | [11] 98 % of control | [12] 104 % of control

NC(CS(=O)c1ccc([N+](=O)[O-])cc1Cl)C(=O)O (stereo not given)
inactive: [2] 96 % of control

C=CC(C)(C)S(=O)[O-].C[c-]1[c-][c-][c-][c-]1.[C-]#[O+].[C-]#[O+].[Fe+6]
inactive: dose: 50.0 mg/kg/injection, schedule: Q04DX002 (ip), vehicle: saline 109 % of control | dose: 100.0 mg/kg/injection, schedule: Q04DX002 (ip), vehicle: saline 102 % of control

COC(=O)[C@]1(C)CCC[C@]2(C)c3cc(C(C)=O)c(C(C)C)cc3CC[C@@H]12
inactive: [2] 97 % of control | [5] 97 % of control | [6] 100 % of control

CC1Cc2c([nH]c3ccc(Cl)cc23)CN1 (stereo not given)
inactive: dose: 100.0 mg/kg/injection, schedule: Q04DX002 (ip), vehicle: saline with Tween-80 86 % of control | dose: 200.0 mg/kg/injection, schedule: Q04DX002 (ip), vehicle: saline with Tween-80 89 % of control

COc1cc2c(cc1OC)C1c3cc(OC)c(OC)cc3CCN1CC2
inactive: dose: 12.5 mg/kg/injection, schedule: Q01DX009 (ip), vehicle: other 103 % of control | dose: 25.0 mg/kg/injection, schedule: Q01DX009 (ip), vehicle: other 94 % of control

S=C(NNC(=S)Nc1ccc(Cl)cc1)NNc1ccccc1
inactive: [8] 95 % of control | [9] 97 % of control

NC1CCCCC1.[O]=[Cr](=[O])([OH])[OH]
inactive: dose: 6.25 mg/kg/injection, schedule: Q04DX003 (ip), vehicle: saline 103 % of control | dose: 12.5 mg/kg/injection, schedule: Q04DX003 (ip), vehicle: saline 98 % of control | dose: 25.0 mg/kg/injection, schedule: Q04DX003 (ip), vehicle: saline 110 % of control

CC(O)/C=C/c1ccccc1O (stereo not given)
inactive: [3] 90 % of control | [4] 96 % of control | [7] 93 % of control

O=S(=O)(F)c1ccc2nc(-c3ccccc3)cc(Cl)c2c1
inactive: dose: 100.0 mg/kg/injection, schedule: Q01DX009 (ip), vehicle: saline 111 % of control | dose: 200.0 mg/kg/injection, schedule: Q01DX009 (ip), vehicle: saline 108 % of control | dose: 400.0 mg/kg/injection, schedule: Q01DX009 (ip), vehicle: saline 109 % of control

NC(=O)C(C(N)=O)c1ccnc2ccccc12
inactive: dose: 6.25 mg/kg/injection, schedule: Q01DX001 (ip), vehicle: saline with Tween-80 102 % of control | dose: 6.25 mg/kg/injection, schedule: Q01DX009 (ip), vehicle: saline with Tween-80 97 % of control | dose: 12.5 mg/kg/injection, schedule: Q01DX001 (ip), vehicle: saline with Tween-80 103 % of control | dose: 12.5 mg/kg/injection, schedule: Q01DX009 (ip), vehicle: saline with Tween-80 93 % of control | dose: 25.0 mg/kg/injection, schedule: Q01DX001 (ip), vehicle: saline with Tween-80 96 % of control | dose: 25.0 mg/kg/injection, schedule: Q01DX009 (ip), vehicle: saline with Tween-80 93 % of control

Cc1oc2ncnc(N)c2c1C
inactive: [3] 96 % of control | [4] 100 % of control | [7] 95 % of control

O=P(Oc1cccc(Br)c1)(Oc1cccc(Br)c1)c1ccccc1
inactive: [3] 98 % of control | [4] 106 % of control | [7] 108 % of control

COc1cc(OC)cc(C(c2nccc3cc(OC)c(OC)cc23)C(O)(C(F)(F)F)C(F)(F)F)c1 (stereo not given)
inactive: [10] 97 % of control | [2] 90 % of control | [11] 93 % of control | [5] 93 % of control | [12] 86 % of control | [6] 89 % of control

C[N+]12CC3C(O)CC1CCC32 (stereo not given)
inactive: dose: 12.0 mg/kg/injection, schedule: Q01DX001 (ip), vehicle: saline 97 % of control | dose: 12.0 mg/kg/injection, schedule: Q01DX009 (ip), vehicle: saline 96 % of control | dose: 25.0 mg/kg/injection, schedule: Q01DX001 (ip), vehicle: saline 96 % of control | dose: 25.0 mg/kg/injection, schedule: Q01DX009 (ip), vehicle: saline 98 % of control | dose: 50.0 mg/kg/injection, schedule: Q01DX001 (ip), vehicle: saline 97 % of control | dose: 50.0 mg/kg/injection, schedule: Q01DX009 (ip), vehicle: saline 93 % of control
